# Experimental data: patent US12419917B2, “Compositions and methods for treatment of conditions using fractionated honey” (NDAL MFG INC, priority 2021, dated 2025)
# Tested on: SARS-CoV-2
# Format: cell-based
# Conditions: 1-hour contact at 22 ± 2° C., cleanser 100%, ethanol 70%
compound,measurement,setting,value
CCO [Ethanol],LRV (log reduction value) compared to the virus control,<1 log reduction not considered active,>4.3
same,Virus Titer,"virus control titer 5.0, limit of detection 0.7",<0.7 log10 CCID50 of virus per 0.1 mL
